In patent US6420427B1, “Aminobutyric acid derivatives” (Ono Pharmaceutical Co., Ltd., priority 1997, dated 2002):

How the values were obtained:
Format in all cases: biochemical
gelatinase A = molecular target: T1, gelatinase A (Homo sapiens, UniProt P08253); assay: Inhibitory activity against gelatinase A; details: progelatinase A from human normal skin dermal fibroblasts (HNDF), APMA-activated; fluorogenic substrate MOCAc-Pro-Leu-Gly-A2pr(Dnp)-Ala-Arg-NH2 13.5 μM, 37° C.
T1 construct: endogenous in cells; host or cells: human normal skin dermal fibroblasts (HNDF)
T1 sequence (P08253 110-660): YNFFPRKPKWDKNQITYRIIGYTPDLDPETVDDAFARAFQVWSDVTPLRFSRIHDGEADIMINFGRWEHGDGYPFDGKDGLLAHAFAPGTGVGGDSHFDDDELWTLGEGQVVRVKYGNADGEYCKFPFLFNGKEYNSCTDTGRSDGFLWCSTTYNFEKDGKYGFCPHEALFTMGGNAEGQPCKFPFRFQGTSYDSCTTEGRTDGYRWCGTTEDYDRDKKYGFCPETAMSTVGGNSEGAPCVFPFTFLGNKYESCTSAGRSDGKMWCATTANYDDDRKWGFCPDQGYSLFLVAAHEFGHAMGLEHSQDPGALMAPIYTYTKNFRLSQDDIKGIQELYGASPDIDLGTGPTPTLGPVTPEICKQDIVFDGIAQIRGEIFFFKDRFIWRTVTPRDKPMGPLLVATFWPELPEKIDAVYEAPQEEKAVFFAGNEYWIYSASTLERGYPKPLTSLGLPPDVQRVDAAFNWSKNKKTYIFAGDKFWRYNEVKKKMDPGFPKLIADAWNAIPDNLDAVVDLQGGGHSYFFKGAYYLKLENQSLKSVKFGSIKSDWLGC
Method: (1) Inhibitory Activity Against Gelatinase A
The progelatinase A (5 μl; in assay buffer (40 μl)) was purified from human normal skin dermal fibroblasts (HNDF). It was activated by the addition of 10 mM of p-aminophenylmercuric acetate (APMA) ([…]) for 1 hour at 37° C.
A mixture of the synthetic substrate (MOCAc-Pro-Leu-Gly-A2pr(Dnp)-Ala-Arg-NH2) (130 μl; a final concentration 13.5 μM) and a solution (20 μl) with or without various concentrations of the test compound was preincubated for 5 minutes at 37° C.
The solution of activated gelatinase A (50 μl/well) was mixed with the mixture and the mixture was incubated for 15 minutes at 37° C. The enzyme reaction was started. The enzyme activity was represented by increasing value of fluorescent intensity [Ex=325 nm (Ex)/393 nm (Em)] per 1 minute. Inhibitory activity was represented by inhibitory percentage (%) per enzyme activity without the test compound. For example, IC50 of the compound as Example 71 is 0.50 nM.

collagenase = molecular target: T2, collagenase (Homo sapiens, UniProt P03956); assay: Inhibitory activity against collagenase; details: procollagenase from HNDF, trypsin-activated; thioester substrate 1.33 mM, 26° C., absorption at 324 nm
T2 construct: endogenous in cells; host or cells: human normal skin dermal fibroblasts (HNDF)
T2 sequence (P03956 100-469): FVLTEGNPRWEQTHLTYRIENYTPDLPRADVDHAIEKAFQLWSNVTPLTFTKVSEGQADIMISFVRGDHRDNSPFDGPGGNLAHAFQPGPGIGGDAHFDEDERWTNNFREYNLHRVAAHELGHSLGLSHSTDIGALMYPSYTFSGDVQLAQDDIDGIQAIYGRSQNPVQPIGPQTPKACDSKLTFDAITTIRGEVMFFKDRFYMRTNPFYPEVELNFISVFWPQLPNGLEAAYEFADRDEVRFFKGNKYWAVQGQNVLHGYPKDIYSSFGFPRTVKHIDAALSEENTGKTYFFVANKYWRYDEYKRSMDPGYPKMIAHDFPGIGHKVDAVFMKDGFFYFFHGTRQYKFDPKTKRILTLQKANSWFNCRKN
Method: (2) Inhibitory Activity Against Collagenase
The procollagenase (5 μl; in assay buffer (105 μl)) was purified from human normal skin dermal fibroblasts (HNDF). It was activated by the addition of 1 mg/ml Trypsin (45 μl) for 1 minute at 37° C. Trypsin was inactivated by addition of 5 mg/ml soybean trypsin inhibitor (SBTI; 50 μl).
A mixture of the synthetic substrate (Ac-Pro-Leu-Gly-[2-mercapto-4-methyl-pentanoyl]-Leu-Gly-OEt) (105 μl; a final concentration 1.33 mM) and a solution (20 μl) with or without various concentrations of the test compound was preincubated for 5 minutes at 26° C.
The solution of activated enzyme (75 μl/tube, 50 μl) was mixed with the mixture and the mixture was incubated for 10 minutes at 26° C.
Absorption at 324 nm was measured at 40 points over 10 minutes. Vmax value was determined as measured value in 30 points therein.

human stromelysin = molecular target: T3, human stromelysin (Homo sapiens, UniProt P08254); assay: Inhibitory activity against stromelysin; details: APMA-activated, substrate NFF-3, pH 7.5, 37° C.
T3 construct: purchased Yagai
Method: (3) Inhibitory Activity Against Stromelysin ps [Method]
The mixture of human stromelysin (Yagai; 9 volume) and 10 mM p-aminophenylmercury acetate (1 volume) was activated for 20 hours at 37° C. A solution of the test compound in dimethylsulfoxide (10 μl) and 0.5 mM solution (10 μl) of 10 mM solution of the synthetic substrate NFF-3 (Mca-Arg-Pro-Lys-Pro-Val-Glu-Nva-Trp-Arg-Lys(DNP)-NH2., Nva: norvaline, Peptide Laboratory) in dimethylsulfoxide diluted by water were added to assay buffer (50 mM tris-HCl, 10 mM CaCl2, 0.05% Brij35, 0.02% NaN3 (pH 7.5)) (150 μl). Furthermore, assay buffer (30 μl) was added to the mixture. The mixture was incubated for 10 minutes at 37° C. The reaction was started by addition of a solution of the above activated stromelysin solution (50 μl). The enzyme activity was represented by increasing value of fluorescent intensity [Ex=325 nm (Ex)/393 nm (Em)] per 1 minute. Inhibitory activity was represented by inhibitory percentage (%) per enzyme activity without the test compound.

T3 sequence (P08254 100-477): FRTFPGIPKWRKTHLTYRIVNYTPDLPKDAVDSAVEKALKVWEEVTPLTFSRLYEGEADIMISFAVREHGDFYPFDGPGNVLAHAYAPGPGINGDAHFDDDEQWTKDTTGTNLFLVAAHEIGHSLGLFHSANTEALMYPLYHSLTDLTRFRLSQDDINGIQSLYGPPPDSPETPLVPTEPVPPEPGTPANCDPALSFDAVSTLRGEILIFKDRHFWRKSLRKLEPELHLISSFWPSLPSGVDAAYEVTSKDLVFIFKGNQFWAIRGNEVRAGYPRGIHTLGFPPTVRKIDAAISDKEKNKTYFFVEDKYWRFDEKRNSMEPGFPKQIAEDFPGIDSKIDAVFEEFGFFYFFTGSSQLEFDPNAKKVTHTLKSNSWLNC

IC50 (gelatinase A): 0.5 nM | IC50 (collagenase): 2500 nM | IC50 (human stromelysin): 26 nM
SMILES: CCOCOC[C@H](C[C@H](C)C(=O)NO)NC(=O)c1ccc(Oc2ccccc2)cc1 [Example 71, N-Hydroxy-2(S)-methyl-5-ethoxymethoxy-4(S)-[N-(4-phenoxyphenylcarbonyl)-amino]pentanamide]
